These results are taken from patent US11230538B2, “Herbicides” (SYNGENTA PARTICIPATIONS AG, priority 2016, dated 2022).

SMILES strings stand for the structures.

What all share (assay type): in vivo
In one test the test system is Setaria fabenri (SETFA). As to the kind of experiment: B2 Post-emergence herbicidal activity. Further details: key: 5=total damage to plant; 0=no damage to plant. The conditions noted are these: post-emergence application, rate 1000 g/ha, evaluated after 13 days. In short, it runs like this:
(§1)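 Scores run from 0 for undamaged to 5 for fully killed plants, assessed 13 days post-spray. Application was post-emergence at 8 days of growth, using an acetone/water (50:50), 0.5% Tween 20 spray solution; growth at 24 °C day, 16 °C night, 65% humidity.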

The subject of test [1] is Triticum aestivium (TRZAW). Briefly: B2 Post-emergence herbicidal activity. Details: key: 5=total damage to plant; 0=no damage to plant. The conditions noted are these: post-emergence application, rate 1000 g/ha, evaluated after 13 days. In short, it runs like this:
as §1

The test system of test [2] is Alopecurus myosuroides (ALOMY). Briefly: B2 Post-emergence herbicidal activity. Details: key: 5=total damage to plant; 0=no damage to plant. The conditions noted are these: post-emergence application, rate 1000 g/ha, evaluated after 13 days. In short, it runs like this: as §1
Test [3] relates to Triticum aestivium (TRZAW). As to the kind of experiment: B1 Pre-emergence herbicidal activity. The conditions noted are these: pre-emergence application, rate 1000 g/ha, evaluated after 13 days. Further details: key: 5=total damage to plant; 0=no damage to plant. The gist of the method:
(§2)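 Test species received a pre-emergence application one day post-sowing in an acetone/water solution with 0.5% Tween 20. Phytotoxicity was assessed 13 days later on a scale where 0 means no damage and 5 total plant death.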

Test [4] deals with Avena fatua (AVEFA). As to the kind of experiment: B1 Pre-emergence herbicidal activity. Details: key: 5=total damage to plant; 0=no damage to plant. The conditions noted are these: pre-emergence application, rate 1000 g/ha, evaluated after 13 days. In short, it runs like this:
as §2

Test [5] concerns Alopecurus myosuroides (ALOMY). As to the kind of experiment: B1 Pre-emergence herbicidal activity. The conditions noted are these: pre-emergence application, rate 1000 g/ha, evaluated after 13 days. Further details: key: 5=total damage to plant; 0=no damage to plant. In short, it runs like this: as §2
Test [6] relates to Lolium perenne (LOLPE). As to the kind of experiment: B2 Post-emergence herbicidal activity. The conditions noted are these: post-emergence application, rate 1000 g/ha, evaluated after 13 days. In short, it runs like this: as §1
Test [7] deals with Lolium perenne (LOLPE). As to the kind of experiment: B1 Pre-emergence herbicidal activity. Details: key to Pre-emergence herbicidal activity, LOLPE (damage score 0-5): 5=total damage to plant; 0=no damage to plant. The conditions noted are these: pre-emergence application, rate 1000 g/ha, evaluated after 13 days. The gist of the method:
as §2

The test system of test [8] is Avena fatua (AVEFA). As to the kind of experiment: B2 Post-emergence herbicidal activity. The conditions noted are these: post-emergence application, rate 1000 g/ha, evaluated after 13 days. In short, it runs like this:
as §1

Test [9] has as its system Echinochloa crus-galli (ECHCG). Briefly: B1 Pre-emergence herbicidal activity. Further details: key to Pre-emergence herbicidal activity, ECHCG (damage score 0-5): 5=total damage to plant; 0=no damage to plant. The conditions noted are these: pre-emergence application, rate 1000 g/ha, evaluated after 13 days. The gist of the method:
as §2

The test system of test [10] is Echinochloa crus-galli (ECHCG). Briefly: B2 Post-emergence herbicidal activity. Further details: key to Post-emergence herbicidal activity, ECHCG (damage score 0-5): 5=total damage to plant; 0=no damage to plant. The conditions noted are these: post-emergence application, rate 1000 g/ha, evaluated after 13 days. The gist of the method:
as §1

The next test concerns Setaria fabenr (SETFA). Briefly: B1 Pre-emergence herbicidal activity. Further details: key to Pre-emergence herbicidal activity, SETFA (damage score 0-5): 5=total damage to plant; 0=no damage to plant. The conditions noted are these: pre-emergence application, rate 1000 g/ha, evaluated after 13 days. In short, it runs like this: as §2

As for `O=C(O)CCC(=O)Nc1ccc(-c2cncc(F)c2)nc1C(F)(F)F` [Compound C113, 4-[[6-(5-fluoro-3-pyridyl)-2-(trifluoromethyl)-3-pyridyl]amino]-4-oxo-butanoic acid], the “Post-emergence herbicidal activity, SETFA (damage score 0-5)” value in the test on Setaria fabenri (SETFA) was determined as 5. In addition, in test [1], the “Post-emergence herbicidal activity, TRAZW (damage score 0-5)” value came to 3. Also, in test [2], the “Post-emergence herbicidal activity, ALOMY (damage score 0-5)” value is 1. For the same molecule, the “Pre-emergence herbicidal activity, TRAZW (damage score 0-5)” value (“Pre-emergence herbicidal activity, TRAZW” for short) in test [3] is listed as 0. In addition, in the test on Avena fatua (AVEFA) [4], the “Pre-emergence herbicidal activity, AVEFA (damage score 0-5)” value (shortened to “Pre-emergence herbicidal activity, AVEFA”) came out at 2. Also, in test [5], the “Pre-emergence herbicidal activity, ALOMY (damage score 0-5)” value (“Pre-emergence herbicidal activity, ALOMY” below) is recorded as 0. The “Post-emergence herbicidal activity, LOLPE (damage score 0-5)” value in the test on Lolium perenne (LOLPE) [6] is given as 3. In addition, the “Pre-emergence herbicidal activity, LOLPE (damage score 0-5)” value (from here on “Pre-emergence herbicidal activity, LOLPE”) with Lolium perenne (LOLPE) [7] was found to be 1. In addition, in the test with Avena fatua (AVEFA) [8], the “Post-emergence herbicidal activity, AVEFA (damage score 0-5)” value worked out at 4. In addition, the “Pre-emergence herbicidal activity, ECHCG (damage score 0-5)” value (shortened to “Pre-emergence herbicidal activity, ECHCG”) in test [9] was determined as 5. Further, in test [10], the “Post-emergence herbicidal activity, ECHCG (damage score 0-5)” value is listed as 5. Also, the “Pre-emergence herbicidal activity, SETFA (damage score 0-5)” value (“Pre-emergence herbicidal activity, SETFA” below) in the test with Setaria fabenr (SETFA) amounted to 5.
As for `O=C(Nc1ccc(-c2cncc(F)c2)nc1C(F)(F)F)c1ccccn1` [Compound C45], the “Post-emergence herbicidal activity, SETFA (damage score 0-5)” value in the test on Setaria fabenri (SETFA) is 5. Further, the “Post-emergence herbicidal activity, TRAZW (damage score 0-5)” value in [1] is listed as 1. Also, in test [2], the “Post-emergence herbicidal activity, ALOMY (damage score 0-5)” value came out at 0. Moreover, in [3], the “Pre-emergence herbicidal activity, TRAZW” value turned out to be 0. Moreover, the “Pre-emergence herbicidal activity, AVEFA” value in the test with Avena fatua (AVEFA) [4] amounted to 2. The “Pre-emergence herbicidal activity, ALOMY” value in test [5] stood at 0. Also, the “Post-emergence herbicidal activity, LOLPE (damage score 0-5)” value in the test with Lolium perenne (LOLPE) [6] is reported as 2. Further, in the test with Lolium perenne (LOLPE) [7], the “Pre-emergence herbicidal activity, LOLPE” value was 1. Further, the “Post-emergence herbicidal activity, AVEFA (damage score 0-5)” value in the test on Avena fatua (AVEFA) [8] turned out to be 2. Moreover, in test [9], the “Pre-emergence herbicidal activity, ECHCG” value stood at 5. Besides, in test [10], the “Post-emergence herbicidal activity, ECHCG (damage score 0-5)” value amounted to 5. For the same molecule, in the test with Setaria fabenr (SETFA), the “Pre-emergence herbicidal activity, SETFA” value was determined as 4.
With `COCC(=O)Nc1ccc(-c2cncc(F)c2)nc1C(F)(F)F` [Compound C27], the “Post-emergence herbicidal activity, SETFA (damage score 0-5)” value in the test with Setaria fabenri (SETFA) is on record as 5. For the same molecule, in test [1], the “Post-emergence herbicidal activity, TRAZW (damage score 0-5)” value amounted to 1. Moreover, the “Post-emergence herbicidal activity, ALOMY (damage score 0-5)” value in test [2] was found to be 1. In addition, the “Pre-emergence herbicidal activity, TRAZW” value in test [3] is on record as 0. Moreover, the “Pre-emergence herbicidal activity, AVEFA” value in the test with Avena fatua (AVEFA) [4] amounted to 3. The “Pre-emergence herbicidal activity, ALOMY” value in test [5] was 0. For the same molecule, the “Post-emergence herbicidal activity, LOLPE (damage score 0-5)” value in the test on Lolium perenne (LOLPE) [6] is 3. For the same molecule, the “Pre-emergence herbicidal activity, LOLPE” value with Lolium perenne (LOLPE) [7] is on record as 1. Further, the “Post-emergence herbicidal activity, AVEFA (damage score 0-5)” value in the test on Avena fatua (AVEFA) [8] was 4. The “Pre-emergence herbicidal activity, ECHCG” value in [9] is 5. In test [10], the “Post-emergence herbicidal activity, ECHCG (damage score 0-5)” value was determined as 5. In the test with Setaria fabenr (SETFA), the “Pre-emergence herbicidal activity, SETFA” value came to 5.
As to `CC(C)C(=O)N(c1ccc(-c2cncc(F)c2)nc1C(F)(F)F)C(C)C` [Compound C90], the “Post-emergence herbicidal activity, SETFA (damage score 0-5)” value with Setaria fabenri (SETFA) is given as 4. In test [1], the “Post-emergence herbicidal activity, TRAZW (damage score 0-5)” value was determined as 1. Further, in test [2], the “Post-emergence herbicidal activity, ALOMY (damage score 0-5)” value turned out to be 0. Moreover, the “Pre-emergence herbicidal activity, TRAZW” value in [3] amounted to 0. Also, the “Pre-emergence herbicidal activity, AVEFA” value in the test on Avena fatua (AVEFA) [4] stood at 0. Further, the “Pre-emergence herbicidal activity, ALOMY” value in [5] is given as 0. Besides, the “Post-emergence herbicidal activity, LOLPE (damage score 0-5)” value in the test with Lolium perenne (LOLPE) [6] was 1. For the same molecule, the “Pre-emergence herbicidal activity, LOLPE” value in the test on Lolium perenne (LOLPE) [7] was determined as 0. Also, the “Post-emergence herbicidal activity, AVEFA (damage score 0-5)” value in the test on Avena fatua (AVEFA) [8] came out at 2. In addition, in test [9], the “Pre-emergence herbicidal activity, ECHCG” value came out at 2. Also, the “Post-emergence herbicidal activity, ECHCG (damage score 0-5)” value in test [10] was 4. In addition, the “Pre-emergence herbicidal activity, SETFA” value in the test on Setaria fabenr (SETFA) stood at 2.
